Earlier results, collected in PMC6510909 (Investigational New Drugs, 2018).
Where two headings read alike, the source gives them in different places.

Key:
[1] = tested on: patients with metastatic pancreatic cancer that was refractory to gemcitabine; set-up: method as in PMID 26351344; conditions: with capecitabine, cited from earlier work
[2] = tested on: patients with advanced/metastatic pancreatic cancer; set-up: method as in earlier work; conditions: JANUS-2 interim analysis; P = 0.942; cited from earlier work
[3] = tested on: patients with advanced/metastatic pancreatic cancer; set-up: method as in earlier work; conditions: JANUS-1 interim analysis; P = 0.409; cited from earlier work
pancreatic cancer = conditions: nab-P + G group, MPACT trial; cited from earlier work

Row | Compound | HR for OS, ruxolitinib vs placebo ([1]; overall study population, P = 0.25) | HR for OS, ruxolitinib vs placebo ([1]; subgroup with C-reactive peptide >13 mg/L, P = 0.011) | HR for OS, ruxolitinib vs placebo [2] | HR for OS, ruxolitinib vs placebo [3] | Median OS (pancreatic cancer) [months]
1 | N#CC[C@H](C1CCCC1)n1cc(-c2ncnc3[nH]ccc23)cn1 [ruxolitinib] | 0.79 [95% CI, 0.53–1.18] | 0.47 [95% CI, 0.26–0.85] | 1.584 [95% CI, 0.89–2.83] | 0.969 [95% CI, 0.75–1.26] | –
2 | albumin-bound paclitaxel + gemcitabine [nab-P + G] | – | – | – | – | 8.5
